Reference: ChEMBL document CHEMBL1201862, “PubChem BioAssay data set” (2004)
Values joined by “and” are separate entries in the source; they are usually repeats but may differ in a detail not shown here. Identical values can stand only once. Active and inactive are the calls of the source.

What was measured:
[1] = tested on: Vero; assay: cells; type: functional; conditions: Chlorocebus sabaeus
[2] = tested on: Vero; assay: cells; type: functional, cell-based; conditions: Chlorocebus sabaeus
[3] = molecular target: CAAX prenyl protease 1 (Saccharomyces cerevisiae S288c, UniProt P47154); assay: yeast CAAX protease Ste24 inhibition – biochemical, S. cerevisiae, plate reader, cherry-pick, dose response (AID 488815)
[4] = molecular target: Dual specificity protein kinase CLK1 (Homo sapiens, UniProt P49759); assay: inhibition of human CLK1 activity – biochemical, cherry-picked samples, selectivity assay for Dyrk1A inhibitor project, dose response (AID 588811)
[5] = fluconazole-exposed Candida albicans growth modulators – fluorescence, retest, confirmation (AID 2467); type: functional, cell-based
[6] = molecular target: Serine/threonine-protein phosphatase (Candida dubliniensis (strain CD36 / CBS 7987 / NCPF 3949 / NRRLY-17841) (Yeast), UniProt B9W6M3); assay: blockers of CaCl2-induced CDRE-lacZ signaling – S. cerevisiae, luminescence, secondary, dose response (AID 2388); type: functional, cell-based;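 note: yeast reporter cells carrying a calcineurin-responsive lacZ construct stimulated with calcium chloride; luminescent beta-galactosidase reporter signal in whole cells rather than isolated phosphatase activity; potency for inhibition where a drop in reporter signal means calcineurin blockade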
[7] = molecular target: ATP-dependent molecular chaperone HSP82 (Candida albicans (strain WO-1) (Yeast), UniProt C4YTQ8); assay: steroid-induced GRE reporter decrease in yeast – S. cerevisiae, luminescence, Hsp90 inhibitor project, dose response (AID 2400); type: functional, cell-based;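 note: beta-galactosidase luminescence from glucocorticoid response element reporter as proxy for Hsp90 function; inhibitor potency where signal loss means Hsp90 inhibition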
[8] = NIH-3T3 fibroblast cytotoxicity, dose response, cytotoxicity control, cell-based, fluorescence, Alamar Blue, secondary assay (AID 2327); type: functional;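 note: NIH-3T3 mouse fibroblasts cultured with fluconazole at 8 µg/mL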
[9] = tested on: Escherichia coli; assay: microbe, parasite or virus in culture
[10] = tested on: Escherichia coli; assay: microbe, parasite or virus in culture; remark: listed apart in the source
[11] = HEK-293T viability loss, compound-treated – cell-based, uHTS hits, cytotoxicity control for B/T-cell NF-kB inhibitor project, dose response (AID 489019); type: functional;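 note: IC50 reflects cytotoxicity as loss of cell viability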
[12] = tested on: HT-1080; assay: HT1080 cell viability loss – fluorescence readout (AID 620); type: functional, cell-based; conditions: Homo sapiens
[13] = luciferase reporter signal suppression in cells – H4 neuroglioma cells, luminescence, dose response (AID 1990); type: functional, cell-based
[14] = luciferase reporter signal reduction – luminescence, H4-C neuroglioblastoma cells, dose response (AID 2458); type: functional, cell-based;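 note: H4 neuroglioblastoma cells stably carrying a luciferase reporter gene fusion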
[15] = alpha-synuclein stem-loop translation blockers – luminescence, H4 neuroglioblastoma cells, dose confirmation, confirmation (AID 2454); type: functional, cell-based;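 note: H4 neuroglioblastoma cells carrying an alpha-synuclein 5'UTR luciferase reporter; potency for inhibition of the luciferase signal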
[16] = cells; type: functional, cell-based
[17] = off-target signal loss in HeLa-CEM21 co-culture – HeLa F-luc CTL cells, cherry-picked, counter-screen for HIV-1 Env fusion inhibitor project, dose response (AID 652040); type: functional, cell-based;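 note: potency for signal decrease marking cytotoxic or nonspecific inhibition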
[18] = HIV-1 AD8 envelope cell-cell fusion blockers – cherry-pick, dose response (AID 652062); type: functional, cell-based;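 note: luciferase signal from cell-cell fusion driven by HIV-1 clade B AD8 Env; potency is for inhibitors of fusion seen as a drop in luminescence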
[19] = molecular target: Luciferin 4-monooxygenase (Photinus pyralis, UniProt P08659); assay: Counter Screen for Luciferase-based Assay Positives. [Related pubchem assays: 620, 618, 411 ]
[20] = blockers of HIV-1 envelope-mediated cell-cell fusion – cherry-pick, dose response (AID 652057); type: functional, cell-based
[21] = blockers of HIV-1 ZM109 envelope-driven cell-cell fusion – HeLa effector, CEM target cells, luciferase, cherry-pick, dose response (AID 652058); type: functional, cell-based;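 note: luciferase signal from HIV-1 Env mediated cell-cell fusion of effector and target cells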
[22] = Luminescence Cell-Based Dose Response HTS to Identify Inhibitors of 5'UTR Stem-Loop Driven Prion Protein mRNA Translation in H4 Neuroglioblastoma Cells. [Related pubchem assays: 1827 (Project Summary), 1813 (Primary HTS)]; type: functional
[23] = alpha-synuclein stem-loop luciferase translation blockers – H4 neuroglioma cells, luminescence, confirmation (AID 1988); type: functional, cell-based
[24] = molecular target: Voltage-dependent T-type calcium channel subunit alpha-1H (Homo sapiens, UniProt O95180); type: functional;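 note: channel activity triggered by adding a high calcium stimulation buffer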
[25] = tested on: Jurkat; assay: blockers of NF-kB activation in T cells – Jurkat, luciferase reporter, luminescence, B- and T-cell, dose response (AID 489004); type: functional, cell-based; conditions: Homo sapiens;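 note: NF-kB luciferase reporter Jurkat cells stimulated with PMA plus ionomycin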
[26] = molecular target: Glyceraldehyde-3-phosphate dehydrogenase (Homo sapiens, UniProt P04406)
[27] = tested on: HEK293; assay: HEK293T cell viability loss, resazurin readout – resazurin fluorescence, cytotoxicity control for NF-kB activator project, SAR follow-up (AID 493251); type: functional, cell-based; conditions: Homo sapiens
[28] = tested on: HEK293; assay: SAR Analysis of small molecule inhibitors of T-cell specific antigen receptor-induced NF-kB activation in a HEK-293T cell line using a luminescence assay - Set 2. [Related pubchem assays (depositor defined):AID435003, AID435012, AID489026]; type: functional, cell-based; conditions: Homo sapiens
[29] = tested on: Jurkat; assay: SAR Analysis of small molecule inhibitors of T-cell specific antigen receptor-induced NF-kB activation in a Jurkat cell line using a luminescence assay - Set 2. [Related pubchem assays (depositor defined):AID435003, AID435012, AID465]; type: functional, cell-based; conditions: Homo sapiens
[30] = molecular target: T1, Corticotropin-releasing factor receptor 2/Corticotropin-releasing factor-binding protein (Homo sapiens, UniProt P24387+Q13324); assay: activators of CRF receptor 2 with binding protein – uHTS hits, confirmation (AID 602473); type: functional; conditions: read-out: EC50_Mean
T1 sequence (Q13324 whole entry): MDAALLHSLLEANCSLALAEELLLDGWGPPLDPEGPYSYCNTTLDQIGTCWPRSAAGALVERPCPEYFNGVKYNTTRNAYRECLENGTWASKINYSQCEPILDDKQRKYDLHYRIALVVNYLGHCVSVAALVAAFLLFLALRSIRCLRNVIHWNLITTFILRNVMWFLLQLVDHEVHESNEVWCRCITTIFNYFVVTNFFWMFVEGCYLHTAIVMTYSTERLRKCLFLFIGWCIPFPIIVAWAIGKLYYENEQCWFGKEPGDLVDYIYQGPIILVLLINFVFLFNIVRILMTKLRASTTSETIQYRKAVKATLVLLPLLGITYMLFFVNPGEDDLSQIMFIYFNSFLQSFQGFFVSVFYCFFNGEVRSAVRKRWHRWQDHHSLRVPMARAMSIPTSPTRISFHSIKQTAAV
T1 sequence (P24387 whole entry): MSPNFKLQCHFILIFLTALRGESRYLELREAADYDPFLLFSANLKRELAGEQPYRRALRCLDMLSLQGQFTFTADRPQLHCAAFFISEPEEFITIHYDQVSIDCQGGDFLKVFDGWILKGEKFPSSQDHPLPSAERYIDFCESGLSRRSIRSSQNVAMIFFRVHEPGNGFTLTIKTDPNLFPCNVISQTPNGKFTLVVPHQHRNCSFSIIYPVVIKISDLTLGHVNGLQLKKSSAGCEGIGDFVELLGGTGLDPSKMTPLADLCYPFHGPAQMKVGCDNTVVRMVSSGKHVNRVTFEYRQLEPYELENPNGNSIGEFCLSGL

[31] = tested on: HeLa; assay: viability loss in HeLa cells – cell-based, 24 h, cherry-picked samples, cytotoxicity control, dose response (AID 504726); type: functional; conditions: Homo sapiens;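 note: potency for cytotoxicity as loss of luminescence signal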
[32] = molecular target: Eukaryotic translation initiation factor 4E (Mus musculus, UniProt P63073); assay: blockers of eIF4G binding by eIF4E – biochemical, TR-FRET, dose response (AID 855); type: functional;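 note: potency for disrupting eIF4E binding to eIF4GI seen as loss of FRET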
[33] = molecular target: Keap1/Nrf2 (Homo sapiens, UniProt Q14145); assay: disruptors of Keap1 binding to Nrf2 peptide – biochemical, fluorescence polarization, cherry-picked samples, dose response (AID 588683)
[34] = molecular target: ORF 73 (Human herpesvirus 8, UniProt O40947); assay: KSHV LANA DNA-binding disruption – biochemical, fluorescence polarization, cherry-picked samples, dose response (AID 504725); set-up: species or system Human gammaherpesvirus 8;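 note: fluorescence polarization of a labeled DNA duplex reporting LANA DNA binding; potency is for inhibitors that block LANA binding to the DNA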
[35] = molecular target: Paired box protein Pax-8 (Homo sapiens, UniProt Q06710); assay: PAX8 transcriptional activity inhibition in RMG-I – RMG-I cells, luciferase, cherry-pick, dose response (AID 687027); type: functional, cell-based;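 note: luciferase reporter driven by Pax8 target thyroperoxidase promoter measured by SteadyGlo luminescence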
[36] = Luminescence Cell-Based Dose Retest to Confirm Inhibitors of Cancer Stem Cells. [Related pubchem assays (depositor defined):AID2717, AID2721]; type: functional; conditions: Homo sapiens
[37] = Fluorescence-based cell-based high throughput dose response assay for inhibitors of the interaction of nucleotide-binding oligomerization domain containing 2 (NOD2) and the receptor-interacting serine-threonine kinase 2 (RIPK2).; type: functional; conditions: Homo sapiens
[38] = molecular target: Beta Lactamase (Pseudomonas aeruginosa, UniProt Q932Y6); assay: BLA reporter interference, concentration series – BLA reporter cells, FRET fluorescence, artefact control for NOD2-RIPK2 interaction inhibitor project, dose response (AID 651552); type: functional, cell-based
[39] = non-specific 3'UTR reporter inhibition in Clone20-Shn3RL – cell-based, Renilla luciferase, cherry-picked, counter-screen for Shn3 inhibitor project, dose response (AID 624133); type: functional
[40] = loss of viability in HepG2 cells – cell-based, CellTiter-Glo, cherry-picked, cytotoxicity control for Shn3 inhibitor project, dose response (AID 624134); type: functional
[41] = reduction of Shn3 3'UTR-driven luciferase in osteoblasts – cell-based, Clone20 osteoblasts, firefly luciferase, cherry-picked, dose response (AID 624132); type: functional;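 note: firefly luciferase luminescence from reporter carrying the Shn3 3'UTR in osteoblasts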

ORF 73, sequence (O40947 whole entry): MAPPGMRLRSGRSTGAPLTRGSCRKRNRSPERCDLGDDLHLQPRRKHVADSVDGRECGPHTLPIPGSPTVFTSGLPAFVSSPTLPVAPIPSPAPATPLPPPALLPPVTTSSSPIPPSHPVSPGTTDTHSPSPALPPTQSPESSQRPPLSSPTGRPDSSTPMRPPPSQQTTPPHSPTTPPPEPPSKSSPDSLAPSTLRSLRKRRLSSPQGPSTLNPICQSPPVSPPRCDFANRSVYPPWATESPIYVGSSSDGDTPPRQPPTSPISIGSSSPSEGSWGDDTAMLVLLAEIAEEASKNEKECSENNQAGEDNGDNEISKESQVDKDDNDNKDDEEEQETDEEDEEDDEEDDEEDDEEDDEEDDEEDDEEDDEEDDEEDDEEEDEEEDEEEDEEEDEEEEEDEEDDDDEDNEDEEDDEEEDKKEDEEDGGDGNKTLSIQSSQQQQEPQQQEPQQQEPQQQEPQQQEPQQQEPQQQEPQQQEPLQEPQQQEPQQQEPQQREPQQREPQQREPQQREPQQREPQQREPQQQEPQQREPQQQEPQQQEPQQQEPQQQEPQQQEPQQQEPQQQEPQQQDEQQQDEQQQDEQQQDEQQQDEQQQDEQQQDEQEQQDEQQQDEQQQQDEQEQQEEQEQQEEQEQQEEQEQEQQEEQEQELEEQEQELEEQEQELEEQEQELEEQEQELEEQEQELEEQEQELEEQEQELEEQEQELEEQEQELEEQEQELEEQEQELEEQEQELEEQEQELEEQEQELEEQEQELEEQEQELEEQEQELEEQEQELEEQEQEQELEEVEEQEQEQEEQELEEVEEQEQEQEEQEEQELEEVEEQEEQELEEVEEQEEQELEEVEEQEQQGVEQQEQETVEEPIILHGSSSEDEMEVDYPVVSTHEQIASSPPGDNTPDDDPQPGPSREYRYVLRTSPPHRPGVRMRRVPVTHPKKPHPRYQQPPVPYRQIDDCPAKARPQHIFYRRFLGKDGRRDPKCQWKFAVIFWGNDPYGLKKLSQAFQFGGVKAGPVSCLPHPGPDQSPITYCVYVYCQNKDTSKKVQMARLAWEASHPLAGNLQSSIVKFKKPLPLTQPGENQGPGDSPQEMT
Dual specificity protein kinase CLK1, sequence (P49759 whole entry): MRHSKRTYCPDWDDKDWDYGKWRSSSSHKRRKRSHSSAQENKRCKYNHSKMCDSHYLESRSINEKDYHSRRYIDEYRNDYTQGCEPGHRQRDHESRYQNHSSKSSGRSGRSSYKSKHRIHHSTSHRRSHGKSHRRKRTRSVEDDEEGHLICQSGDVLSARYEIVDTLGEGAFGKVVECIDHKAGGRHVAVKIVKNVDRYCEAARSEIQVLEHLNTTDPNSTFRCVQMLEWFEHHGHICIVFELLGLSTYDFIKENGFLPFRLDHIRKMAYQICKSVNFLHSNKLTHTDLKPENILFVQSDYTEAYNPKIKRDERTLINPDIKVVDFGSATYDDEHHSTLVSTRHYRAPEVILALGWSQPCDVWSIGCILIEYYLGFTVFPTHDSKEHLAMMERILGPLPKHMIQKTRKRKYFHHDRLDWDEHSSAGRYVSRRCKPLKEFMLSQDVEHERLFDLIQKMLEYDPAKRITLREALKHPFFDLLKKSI
Keap1/Nrf2, sequence (Q16236 whole entry): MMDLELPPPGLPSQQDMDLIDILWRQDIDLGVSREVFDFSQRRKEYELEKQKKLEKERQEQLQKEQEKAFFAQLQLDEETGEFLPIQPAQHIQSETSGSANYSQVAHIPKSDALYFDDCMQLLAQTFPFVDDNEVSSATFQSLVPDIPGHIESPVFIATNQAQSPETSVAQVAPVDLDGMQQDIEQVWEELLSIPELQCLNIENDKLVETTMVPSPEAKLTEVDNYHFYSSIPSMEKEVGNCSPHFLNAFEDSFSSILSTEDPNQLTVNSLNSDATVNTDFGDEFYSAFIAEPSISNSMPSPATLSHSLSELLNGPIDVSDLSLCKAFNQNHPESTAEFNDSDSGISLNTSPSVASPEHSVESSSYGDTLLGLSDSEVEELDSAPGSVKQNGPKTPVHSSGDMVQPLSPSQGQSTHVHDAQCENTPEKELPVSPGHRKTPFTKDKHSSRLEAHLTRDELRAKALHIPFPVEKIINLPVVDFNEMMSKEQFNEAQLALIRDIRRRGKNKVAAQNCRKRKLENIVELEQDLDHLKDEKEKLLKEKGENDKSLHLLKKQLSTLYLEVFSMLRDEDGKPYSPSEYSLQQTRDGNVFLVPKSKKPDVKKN
Keap1/Nrf2, sequence (Q14145 whole entry): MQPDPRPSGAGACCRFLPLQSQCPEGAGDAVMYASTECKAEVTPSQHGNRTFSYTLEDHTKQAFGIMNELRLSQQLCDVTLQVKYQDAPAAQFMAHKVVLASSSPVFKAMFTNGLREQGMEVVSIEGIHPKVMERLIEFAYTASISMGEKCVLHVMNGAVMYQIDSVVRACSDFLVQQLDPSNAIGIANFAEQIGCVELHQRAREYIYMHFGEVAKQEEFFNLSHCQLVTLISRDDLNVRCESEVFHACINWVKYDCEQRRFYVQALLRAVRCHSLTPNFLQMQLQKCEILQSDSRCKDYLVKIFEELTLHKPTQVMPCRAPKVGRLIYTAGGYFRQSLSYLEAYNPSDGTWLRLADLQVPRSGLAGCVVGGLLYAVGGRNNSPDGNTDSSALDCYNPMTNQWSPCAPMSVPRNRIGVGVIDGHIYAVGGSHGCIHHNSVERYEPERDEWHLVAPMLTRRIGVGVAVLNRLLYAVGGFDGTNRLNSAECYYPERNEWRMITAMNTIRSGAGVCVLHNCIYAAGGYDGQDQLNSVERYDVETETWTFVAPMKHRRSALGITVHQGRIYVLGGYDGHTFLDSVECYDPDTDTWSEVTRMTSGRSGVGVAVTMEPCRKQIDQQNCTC
ATP-dependent molecular chaperone HSP82, sequence (C4YTQ8 whole entry): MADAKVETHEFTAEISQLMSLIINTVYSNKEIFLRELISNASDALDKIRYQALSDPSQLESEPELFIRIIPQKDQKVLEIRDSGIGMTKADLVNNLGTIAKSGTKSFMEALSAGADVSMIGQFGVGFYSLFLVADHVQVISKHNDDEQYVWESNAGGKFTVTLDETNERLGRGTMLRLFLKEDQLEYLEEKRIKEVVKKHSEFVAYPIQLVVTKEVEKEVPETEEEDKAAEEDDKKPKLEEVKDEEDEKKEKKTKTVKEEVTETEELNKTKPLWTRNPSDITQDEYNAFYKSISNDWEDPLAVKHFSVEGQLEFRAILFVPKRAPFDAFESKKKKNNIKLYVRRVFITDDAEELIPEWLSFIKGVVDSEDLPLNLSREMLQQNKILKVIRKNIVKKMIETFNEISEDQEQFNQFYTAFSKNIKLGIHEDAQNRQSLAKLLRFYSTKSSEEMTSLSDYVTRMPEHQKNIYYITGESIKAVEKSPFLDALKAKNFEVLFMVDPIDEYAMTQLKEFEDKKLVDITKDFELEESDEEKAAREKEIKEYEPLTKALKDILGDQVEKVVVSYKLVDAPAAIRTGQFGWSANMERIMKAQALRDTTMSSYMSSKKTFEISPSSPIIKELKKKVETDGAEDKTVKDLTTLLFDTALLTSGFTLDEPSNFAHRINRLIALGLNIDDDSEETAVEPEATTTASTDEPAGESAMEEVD
Luciferin 4-monooxygenase, sequence (P08659 whole entry, the tested form may be a part): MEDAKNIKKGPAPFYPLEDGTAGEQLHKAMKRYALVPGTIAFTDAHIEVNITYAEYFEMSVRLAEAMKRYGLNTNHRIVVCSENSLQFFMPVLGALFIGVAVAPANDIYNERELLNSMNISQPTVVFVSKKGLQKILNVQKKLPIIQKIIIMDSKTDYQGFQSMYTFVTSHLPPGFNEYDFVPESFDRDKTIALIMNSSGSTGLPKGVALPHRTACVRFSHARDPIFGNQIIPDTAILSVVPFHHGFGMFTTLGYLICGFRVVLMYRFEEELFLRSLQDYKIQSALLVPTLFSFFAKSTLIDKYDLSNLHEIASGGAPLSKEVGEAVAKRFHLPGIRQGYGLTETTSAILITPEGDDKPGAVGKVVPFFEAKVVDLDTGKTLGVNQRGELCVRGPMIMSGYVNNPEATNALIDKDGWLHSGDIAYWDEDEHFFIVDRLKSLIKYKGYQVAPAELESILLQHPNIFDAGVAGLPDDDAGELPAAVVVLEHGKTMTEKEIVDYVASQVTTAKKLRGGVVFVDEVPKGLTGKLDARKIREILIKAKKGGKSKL
CAAX prenyl protease 1, sequence (P47154 whole entry): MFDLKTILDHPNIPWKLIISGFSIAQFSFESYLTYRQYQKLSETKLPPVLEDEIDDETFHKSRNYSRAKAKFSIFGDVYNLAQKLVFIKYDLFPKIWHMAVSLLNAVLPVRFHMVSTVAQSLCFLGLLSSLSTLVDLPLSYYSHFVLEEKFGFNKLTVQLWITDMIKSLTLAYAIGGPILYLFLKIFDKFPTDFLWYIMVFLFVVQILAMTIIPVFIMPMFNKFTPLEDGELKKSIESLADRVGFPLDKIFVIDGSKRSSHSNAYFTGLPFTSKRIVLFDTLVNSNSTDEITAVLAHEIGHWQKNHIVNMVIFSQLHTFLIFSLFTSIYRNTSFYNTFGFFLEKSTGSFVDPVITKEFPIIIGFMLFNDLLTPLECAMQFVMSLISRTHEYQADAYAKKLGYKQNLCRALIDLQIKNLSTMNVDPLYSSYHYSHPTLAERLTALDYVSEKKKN
Beta Lactamase, sequence (Q932Y6 whole entry): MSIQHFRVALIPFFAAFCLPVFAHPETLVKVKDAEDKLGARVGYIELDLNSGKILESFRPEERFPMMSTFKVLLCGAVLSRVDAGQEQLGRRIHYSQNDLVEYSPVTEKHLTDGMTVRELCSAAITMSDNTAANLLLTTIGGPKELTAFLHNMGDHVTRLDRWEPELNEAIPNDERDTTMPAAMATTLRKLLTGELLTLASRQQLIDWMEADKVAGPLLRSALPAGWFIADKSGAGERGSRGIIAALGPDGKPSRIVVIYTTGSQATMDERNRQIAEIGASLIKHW
Eukaryotic translation initiation factor 4E, sequence (P63073 whole entry): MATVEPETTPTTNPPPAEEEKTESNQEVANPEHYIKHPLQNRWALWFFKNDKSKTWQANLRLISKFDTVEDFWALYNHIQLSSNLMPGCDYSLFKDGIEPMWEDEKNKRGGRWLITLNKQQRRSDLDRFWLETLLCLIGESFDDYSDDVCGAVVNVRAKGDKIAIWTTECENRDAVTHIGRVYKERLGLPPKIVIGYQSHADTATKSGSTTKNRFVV

## O=C(c1cccs1)N(Cc1nc(O)c2c3c(sc2n1)CCCC3)C1CCCC1
[1]
  CC50: > 25 µM (active)
[2]
  IC50: 13.4 µM (active)

## CC1=C(C(=O)N2CCOCC2)C(c2ccccc2F)C2=C(O)CC(C)(C)CC2=N1 (stereo not given)
[3]
  AC50: 14.6 µM (active)

## CCOC(=O)c1ccc(-c2ccc3ncnc(NCc4ccc(C)o4)c3c2)o1
[4]
  AC50: 2.72 nM (active) and 93.6 nM (active)

## O=C(CC(=O)c1cccc([N+](=O)[O-])c1)Nc1ccccc1Cl
[5]
  EC50: 0.524 µM (active)
[6]
  EC50: > 180 µM (inactive)
[7]
  EC50: > 160 µM (inactive)
[8]
  EC50: > 150 µM (inactive)

## CC(C)N1CCC(N2CCN(C3CCCCC3)CC2CCO)CC1 (stereo not given)
[9]
  AC50: 97 µM (active)
[10]
  AC50: 16.8 µM (active)

## COC(=O)CCn1nnc(-c2ccc(C(C)C)cc2)n1
[11]
  IC50: > 80 µM (inactive)
[12]
  EC50: > 50 µM (not active)
[13]
  EC50: < 0.1 µM (active)
[14]
  EC50: 0.251 µM (active)
[15]
  EC50: 0.373 µM (active)
[16]
  EC50: 0.477 µM (active)
[17]
  AC50: < 0.26 µM (active)
[18]
  AC50: 0.379 µM (active)
[19]
  EC50: 2.39 µM (active)
[20]
  AC50: < 0.26 µM (active)
[21]
  AC50: < 0.26 µM (active)
[22]
  EC50: < 0.1 µM (active)
[23]
  EC50: < 0.1 µM (active)
[24]
  EC50: 16.2 µM (active)
[25]
  IC50: < 0.16 µM (active)
[26]
  IC50: > 100 µM (not active)

## Cc1ccc2nsnc2c1NC(=O)c1ccc([N+](=O)[O-])o1
[27]
  IC50: > 80 µM (inactive)
[28]
  IC50: 37.9 µM (inactive)
[29]
  IC50: 22.7 µM (inactive)

## CCCN(CCC)S(=O)(=O)c1ccc(C(=O)OCCN2C(=O)c3cccc4c(N5CCOCC5)ccc(c34)C2=O)cc1
[30]
  EC50: 6.32 µM (active)
[31]
  AC50: 57.8 µM (active)
[32]
  IC50: > 64 µM (inactive)
[33]
  AC50: 7.75 µM (active)
[34]
  AC50: 21.4 µM (active)

## C[C@@H]1O[C@@H](O[C@@H]2C=C3CCC4C(CC[C@]5(C)[C@@H](c6ccc(=O)oc6)CC[C@]45O)[C@@]3(C)CC2)[C@H](O)[C@H](O)[C@H]1O (stereo not given in full)
[11]
  IC50: > 80 µM (inactive)
[35]
  AC50: < 0.26 µM (active)
[1]
  CC50: < 0.05 µM (active)
[36]
  AC50: < 0.16 µM (active)
[25]
  IC50: 1.66 µM (active)

## COc1ccc2nc3ccccc3[n+]([O-])c2c1
[30]
  EC50: 18.1 µM (active)
[31]
  AC50: 119 µM (active)
[33]
  AC50: 8.81 µM (active)
[34]
  AC50: 30.8 µM (active)

## O=C(/C=C1\C(=O)Nc2ccccc21)/C=C1\C(=O)Nc2ccccc21
[37]
  IC50: 1.55 µM (active)
[1]
  CC50: 20 µM (active)
[38]
  IC50: 28.6 µM (inactive)
[2]
  IC50: > 25 µM (active)
[39]
  AC50: 11.7 µM (active)
[40]
  AC50: 64.7 µM (active)
[41]
  AC50: 9.5 µM (active)

## COc1ccc(NC(=O)C/C(C)=N/NC(=O)C(=O)Nc2cccc(Cl)c2C)c(OC)c1
[9]
  AC50: 16.3 µM (active)
[10]
  AC50: 51.6 µM (active)

## CC(C)c1ccc(C(NC(=O)C2CCCCC2)c2ccc3cccnc3c2O)cc1 (stereo not given)
[27]
  IC50: 44.9 µM (inactive)
[28]
  IC50: 4.61 µM (active)
[29]
  IC50: 2.94 µM (active)
